target: T1, Seed linoleate 13S-lipoxygenase-1 (Glycine max, UniProt P08170); assay: Inhibitory activity against Soybean type 1 Lipoxygenase (SBLO) was determined
T1 sequence (P08170 whole entry): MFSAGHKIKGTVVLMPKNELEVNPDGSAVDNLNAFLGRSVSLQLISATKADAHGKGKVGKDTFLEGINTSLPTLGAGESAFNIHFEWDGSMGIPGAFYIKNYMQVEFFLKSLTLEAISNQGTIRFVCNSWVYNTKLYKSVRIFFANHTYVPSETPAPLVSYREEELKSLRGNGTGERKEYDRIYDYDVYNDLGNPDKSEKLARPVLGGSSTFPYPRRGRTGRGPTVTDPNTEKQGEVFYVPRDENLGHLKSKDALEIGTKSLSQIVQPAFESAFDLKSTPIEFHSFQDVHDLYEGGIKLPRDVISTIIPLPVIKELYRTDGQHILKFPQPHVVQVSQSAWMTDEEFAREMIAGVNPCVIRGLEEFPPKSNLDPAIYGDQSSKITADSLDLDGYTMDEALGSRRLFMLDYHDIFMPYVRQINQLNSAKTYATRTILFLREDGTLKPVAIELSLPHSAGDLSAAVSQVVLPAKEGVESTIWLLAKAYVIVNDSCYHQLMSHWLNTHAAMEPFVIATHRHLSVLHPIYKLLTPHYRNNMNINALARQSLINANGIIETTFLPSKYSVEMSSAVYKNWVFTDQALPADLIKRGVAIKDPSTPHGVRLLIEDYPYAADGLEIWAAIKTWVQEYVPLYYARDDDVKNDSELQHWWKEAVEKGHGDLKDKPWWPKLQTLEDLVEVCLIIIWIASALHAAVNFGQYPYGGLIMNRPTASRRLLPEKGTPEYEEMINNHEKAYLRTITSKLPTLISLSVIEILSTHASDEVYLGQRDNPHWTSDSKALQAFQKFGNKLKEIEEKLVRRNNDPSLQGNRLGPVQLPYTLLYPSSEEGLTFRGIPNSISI

Structure (SMILES)	Ki [µM]
CCCCCCCCC1OC1CCCCCCCC(=O)O (configuration not stated)	> 100
CCCCCC1OC1CCCCCCCCCCC(=O)O (configuration not stated)	> 100
CCCCCC1SC1C/C=C/CCCCCCCC(=O)O (configuration not stated)	2
CCCCC/C=C/CC1OC1CCCCCCCC(=O)O (configuration not stated)	> 100
CCCCCCCCC1SC1CCCCCCCC(=O)O (configuration not stated)	> 100
CCCCCC1SC1CCCCCCCCCCC(=O)O (configuration not stated)	4
CCCCC/C=C/CC1SC1CCCCCCCC(=O)O (configuration not stated)	> 100
